Patent publication US20250241878A1, “TYROSINE AND RESVERATROL DERIVATIVES AS NOVEL MODULATORS OF CELLULAR SERINE ADP-RIBOSYLATION” (UNIVERSITY OF SOUTH CAROLINA, priority 2022, published 2025)
Where two headings read alike, the source gives them in different places.

Assays:
[1] = system: cortical neurons; assay: Comet assay; type: cell-based, rat; conditions: for DNA damage, percentage (%) of DNA in the comet tail: compound alone
Protocol: The cells were harvested with a cell scraper using chilled PBS and counted. The comet assay (Trevigen®, Gaithersburg, MD) was performed according to standard methods using alkaline conditions. Electrophoresis was carried out at the rate of 1.0 V/cm for 20 min. The slides were removed from the electrophoresis chamber, washed twice in deionized water for 5 min and immersed in 70% ethanol for 5 min. Subsequently, the slides were dried at 37° C. for 30 min, DNA was stained with 50 μL of SYBR™ Gold dye (Fisher Scientific, 1:10000 in Tris-EDTA buffer, pH 7.5) for 20 min in the dark at room temperature and then analyzed using an epifluorescent microscope at 10× magnification. The images were scored for comet parameters, such as tail length and tail moment (product of % of DNA in the tail and tail length), using the TriTek CometScore™ Freeware v1.5 image analysis software.

[2] = system: eEF2; assay: eEF2 phosphorylation (p-eEF2) Western blot in cortical neurons; type: cell-based, rat; conditions: compound alone
Protocol: (§1) Primary cortical neurons were dissected from E18 Sprague Dawley rat pups in Hibernate E (BrainBits®) and dissociated using the Neural Tissue Dissociation kit (Miltenyi Biotec). Minced cortices were incubated in a pre-warmed enzyme mix at 37° C. for 15 min; tissues were then triturated and strained using a 40 μm cell strainer. After washing and centrifugation, neurons were seeded in 50 μg/ml poly-D-Lysine (Sigma-Aldrich) coated tissue culture plates. NBActive-1 medium (BrainBits®) supplemented with 100 U/ml of Penicillin-Streptomycin (Life Technologies™), 2 mM L-Glutamine (Life Technologies™), and 1×N21 supplement (R&D Systems™) was used as culture medium. For preparation of culture medium containing reduced tyrosine, the components of NBActive-1 medium were altered to combined with a reduced concentration of tyrosine, as mentioned in Table 1, and was supplemented with 100 U/ml of Penicillin-Streptomycin (Life Technologies™), 2 mM L-Glutamine (Life Technologies™), and 1×N21 supplement (R&D Systems™) to obtained culture medium with reduced tyrosine. Control (non-targeting), TyrRS, and PARP1 siRNAs were obtained from Invitrogen™ (#AM4635, s443, and s130207, respectively). Rat cortical neurons at 5 DIV were transfected with 75 nM control or TyrRS siRNA using DharmaFECT™ 3 Transfection Reagent. A second transfection was done two days later using 75 nM of TyrRS siRNA, followed by cell collection or assays after another 48 hr. For PARP1 siRNA, neurons at 7 DIV were transfected with 75 nM siRNA for both control and PARP1 siRNA.
(§2) Cultured neurons (DIV 9-10) were washed once with cold 1×PBS and lysed in cell lysis buffer (20 mM Tris-HCl (pH 7.5), 150 mM NaCl, 1 mM Na2EDTA, 1 mM EGTA, 1% Triton™, 2.5 mM sodium pyrophosphate, 1 mM beta-glycerophosphate, 1 mM Na3VO4, 1 μg/ml leupeptin supplemented with protease inhibitor). The lysates were centrifuged at 10,000 RPM for 15 mins at 4° C. to separate the chromatin-bound and soluble fractions. Lysates were quantified using Bio-Rad™ Protein Assay and equal amounts of protein were loaded onto a 4 to 12% gradient gel (Invitrogen™ NuPAGE™). Protein was transferred from the gel to 0.2 μm NC membranes at 25 V for 10 mins using transfer stacks (iBlot™ 2-Invitrogen™) and blocked with 5% non-fat milk in TBST (10 mM Tris-HCl pH 8.0, 150 mM NaCl, 0.01% Tween-20) for 1 hr before application of primary antibodies. Primary and secondary antibodies were incubated overnight at 4° C. and for 1 hr at room temperature, respectively. Immobilon® ECL Ultra Western HRP Substrate (WBULS0500, Millipore™) and a luminescent image analyzer (ChemiDoc™ Imaging System, Bio-Rad™) were used to detect proteins. Quantification of western blots was done using ImageJ (Version 1.53c).

[3] = system: PheRSα/β; assay: PheRSα/β protein levels in cortical neurons (Western blot); type: cell-based, rat
Protocol: as §1, §2
(§3) The various compounds used for treatments and their stock concentrations in Table 4.

[4] = system: histone H3-Ser10-ADP-ribosylation; assay: Histone H3 serine-ADP-ribosylation immunoblot in cortical neurons; type: cell-based, rat; conditions: compound alone
Protocol: FIG. 5B presents representative immunoblots and quantification of histone H3-Ser10-ADP-ribosylation levels in cortical neurons (DIV9) using anti-H3-Ser10-ADPR antibody after treatment with D-tyrosine (2.5 and 5 mM).
as §2

[5] = biological target: T1, interaction of eEF2 with TyrRS and PP2A (Rattus norvegicus, UniProt Q4KM49); assay: eEF2 immunoprecipitation probed for PP2A and TyrRS; type: cell-based; conditions: compound alone
T1 construct: endogenous in cells; host or cells: primary rat (E18 Sprague Dawley) cortical neurons
T1 sequence (Q4KM49 1-528): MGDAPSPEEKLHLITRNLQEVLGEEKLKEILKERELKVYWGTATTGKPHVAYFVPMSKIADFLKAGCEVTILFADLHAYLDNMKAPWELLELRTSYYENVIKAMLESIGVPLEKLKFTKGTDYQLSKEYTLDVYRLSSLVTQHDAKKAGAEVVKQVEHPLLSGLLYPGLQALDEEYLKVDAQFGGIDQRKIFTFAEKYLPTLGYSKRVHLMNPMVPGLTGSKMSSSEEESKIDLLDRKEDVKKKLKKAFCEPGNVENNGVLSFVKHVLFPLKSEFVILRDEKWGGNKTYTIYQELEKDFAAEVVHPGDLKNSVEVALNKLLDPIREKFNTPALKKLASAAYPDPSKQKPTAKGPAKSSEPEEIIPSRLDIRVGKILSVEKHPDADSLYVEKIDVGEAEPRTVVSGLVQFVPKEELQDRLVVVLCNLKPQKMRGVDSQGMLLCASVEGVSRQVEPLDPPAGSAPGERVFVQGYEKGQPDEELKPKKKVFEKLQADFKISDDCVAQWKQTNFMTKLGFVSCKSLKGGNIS
Description: Immunoprecipitated eEF2 was probed for its interaction with PP2A and TyrRS using their specific antibodies.

[6] = system: TyrRS; type: cell-based, rat; conditions: for effect on NMDA- and MPP+-mediated decrease of neuronal TyrRS: combination with NMDA or MPP+, 4 hr
Protocol: as §1, §2
Cultured cortical neurons (DIV 9-10) were fixed in 4% formaldehyde for 15 min, followed by permeabilization and blocking for 30 min in 5% BSA (PBS) and 0.1% Tween™ 20 at room temperature. Incubation with primary antibodies was done at 4° C. overnight. The names and dilutions of the primary antibodies used for IF are described in Table 3. Secondary antibodies were incubated for 1 hr at room temperature. Secondary antibodies used were Alexa Fluor® 647 (anti-chicken), Alexa Fluor® 555 (anti-mouse), Alexa Fluor® 488 (anti-rabbit) from Invitrogen™ at 1:1000 dilution. Coverslips were then mounted using DAPI (4′,6-diamidino-2-phenylindole)-supplemented mounting medium, ProLong™ Gold Antifade (Invitrogen™) and imaged with Leica DMI6000 epifluorescent microscope using oil immersion 63×/NA 1.4 objective. The quantification for total protein levels in neurons was done using ImageJ (version 1.53c), and imaging parameters were matched for exposure, gain, and offset.
as §3

| SMILES | effect on DNA damage caused by Tyr ([1]; combination with Tyr) | DNA damage, percentage (%) of DNA in the comet tail [1] | eEF2 phosphorylation (p-eEF2) [2] | PheRSβ and PheRSα levels ([3]; low concentration cis-RSV) | histone H3 serine-ADP-ribosylation [4] | interaction of eEF2 with TyrRS and PP2A [5] | TyrRS protein levels ([6]; cis-RSV 10-50 μM) | effect on trans-RSV- and tyrosine-mediated decrease in TyrRS levels ([6]; combination treatment) | effect on NMDA- and MPP+-mediated decrease of neuronal TyrRS [6] | effect on nelfinavir-mediated depletion of TyrRS ([6]; combination with nelfinavir) | PheRSβ levels ([3]; compound alone) | levels of PheRSβ ([3]; second statement of the same sentence, see doubts) | time until TyrRS levels were restored ([6]; after tyrosine treatment) | TyrRS protein levels ([6]; compound alone, rat cortical neurons) | PheRSα levels ([3]; high concentration trans-RSV) | PheRSβ levels ([3]; high concentration trans-RSV) | TyrRS protein levels ([6]; high dose of trans-RSV (50 μM)) | TyrRS protein levels ([6]; low dose of trans-RSV (10 μm)) |
| --- | --- | --- | --- | --- | --- | --- | --- | --- | --- | --- | --- | --- | --- | --- | --- | --- | --- | --- |
| Oc1ccc(/C=C\c2cc(O)cc(O)c2)cc1 [cis-RSV, cis-resveratrol] | attenuated the increase in DNA damage caused by Tyr | did not cause an increase in percentage of DNA in the comet tail | activated the dephosphorylation of eEF2 | increased their levels | stimulated serine-ADP-ribosylation | facilitated the interaction of eEF2 with TyrRS and PP2A | increased TyrRS protein levels both in the nucleus and neurites | rescued the effects of trans-RSV and tyrosine-mediated decrease in TyrRS levels in a dose-dependent manner | suppressed this effect | rescued |  |  |  |  |  |  |  |  |
| N[C@@H](Cc1ccc(O)cc1)C(=O)O [tyrosine, L-tyrosine] |  | significantly increased DNA damage | inhibited eEF2 |  | inhibiting histone H3 serine-ADP-ribosylation | decreased their interactions |  |  |  |  | depleted PheRSβ | did not affect the levels of PheRSβ | 16 to 24 h | decreased TyrRS |  |  |  |  |
| Oc1ccc(/C=C/c2cc(O)cc(O)c2)cc1 [trans-RSV, trans-resveratrol] |  | significantly increased DNA damage | increased p-eEF2 levels |  | inhibiting histone H3 serine-ADP-ribosylation | decreased their interactions |  |  | exacerbated it |  |  |  |  |  | decreased PheRSβ, not PheRSα levels | decreased PheRSβ | decreased it | increased TyrRS |
